# Laboratory results taken from article PMC9090415, “Discovery of small molecule inhibitors of Plasmodium falciparum apicoplast DNA polymerase” (Journal of Enzyme Inhibition and Medicinal Chemistry, 2022).
# Molecular target: T1, bacteriophage T4 DNA polymerase (Enterobacteria phage T4, UniProt P04415)
# T1 construct: made in house
# T1 sequence (P04415 1-898): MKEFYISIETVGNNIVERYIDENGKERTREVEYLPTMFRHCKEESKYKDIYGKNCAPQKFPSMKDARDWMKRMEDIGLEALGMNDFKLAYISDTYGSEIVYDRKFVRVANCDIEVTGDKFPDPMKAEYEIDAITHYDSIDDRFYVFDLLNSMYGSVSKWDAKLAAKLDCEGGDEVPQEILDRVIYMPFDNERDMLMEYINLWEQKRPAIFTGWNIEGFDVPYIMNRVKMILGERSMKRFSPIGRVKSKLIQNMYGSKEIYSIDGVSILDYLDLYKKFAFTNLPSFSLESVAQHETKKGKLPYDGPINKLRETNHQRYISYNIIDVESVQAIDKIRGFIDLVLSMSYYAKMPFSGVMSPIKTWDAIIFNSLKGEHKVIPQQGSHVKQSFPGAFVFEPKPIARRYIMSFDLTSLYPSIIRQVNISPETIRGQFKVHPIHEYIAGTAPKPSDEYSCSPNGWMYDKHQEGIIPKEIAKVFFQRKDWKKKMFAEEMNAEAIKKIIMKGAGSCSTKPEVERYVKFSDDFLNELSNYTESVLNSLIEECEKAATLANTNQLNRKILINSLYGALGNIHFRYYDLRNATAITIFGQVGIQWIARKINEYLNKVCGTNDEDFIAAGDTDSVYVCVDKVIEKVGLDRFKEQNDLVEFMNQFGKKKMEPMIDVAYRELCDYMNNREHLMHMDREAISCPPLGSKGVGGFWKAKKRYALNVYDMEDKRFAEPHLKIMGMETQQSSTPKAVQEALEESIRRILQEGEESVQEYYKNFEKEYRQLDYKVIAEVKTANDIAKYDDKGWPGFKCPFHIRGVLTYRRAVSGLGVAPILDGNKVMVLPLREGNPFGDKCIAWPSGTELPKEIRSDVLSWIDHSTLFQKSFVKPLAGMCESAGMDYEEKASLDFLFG
# Assay: Counter-screen against bacteriophage T4 DNA polymerase
# Type: biochemical
# Details: for % inhibition T4 10' 2.5 / % inhibition T4 10' 5 / % inhibition T4 10' 10 / % inhibition T4 10' 20 / % inhibition T4 10' 40 / % inhibition T4 10' 80: read at 10'
# Outline: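 Purified T4 DNA polymerase, a B-family enzyme, served as the counter-screen enzyme. Compounds were tested in dose-response format and IC50 values were derived.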
smiles,measurement,setting,value
"Cc1ccc(NC(=O)C2CCN(C(=O)c3cc4ccsc4[nH]3)CC2)c(Br)c1 [Molecule 14, O=C(C1CCN(CC1)C(=O)c1cc2c([nH]1)scc2)Nc1ccc(cc1Br)C]",% inhibition T4 10',"DRC-2, concentration 20",5%
same,% inhibition T4 10',"DRC-2, concentration 40",10%
same,% inhibition T4 10',"DRC-2, concentration 80",10%
same,% inhibition T4 40',"DRC-2, concentration 20",5%
same,% inhibition T4 40',"DRC-2, concentration 40",8%
same,% inhibition T4 40',"DRC-2, concentration 80",10%
same,% inhibition T4 90',"DRC-2, concentration 40",6%
same,% inhibition T4 90',"DRC-2, concentration 80",8%
"COc1ccc(-c2cc3nc4c(c(=O)n3[nH]2)CCN(C(=O)CCc2ccccc2)C4)cc1 [Molecule 17, COc1ccc(cc1)c1[nH]n2c(c1)nc1c(c2=O)CCN(C1)C(=O)CCc1ccccc1]",% inhibition T4 10',"DRC-2, concentration 2.5",-22%
same,% inhibition T4 10',"DRC-2, concentration 5",-46%
same,% inhibition T4 10',"DRC-2, concentration 10",-38%
same,% inhibition T4 10',"DRC-2, concentration 20",-44%
same,% inhibition T4 10',"DRC-2, concentration 40",-44%
same,% inhibition T4 40',"DRC-2, concentration 5",-38%
same,% inhibition T4 40',"DRC-2, concentration 10",-30%
same,% inhibition T4 90',"DRC-2, concentration 10",-25%
same,% inhibition T4 90',"DRC-2, concentration 40",-30%
same,% inhibition T4 90',"DRC-2, concentration 80",-46%
same,% inhibition T4 180',"DRC-2, concentration 2.5",-13%
same,% inhibition T4 180',"DRC-2, concentration 10",-22%
same,% inhibition T4 180',"DRC-2, concentration 20",-23%
same,% inhibition T4 180',"DRC-2, concentration 40",-25%
"O=[N+]([O-])c1ccc(/C=C/c2ccc3ccccc3n2)o1 [Molecule 21, O=N(=O)c1ccc(o1)/C=C/c1ccc2c(n1)cccc2]",% inhibition T4 10',"DRC-2, concentration 2.5",23%
same,% inhibition T4 10',"DRC-2, concentration 5",25%
same,% inhibition T4 40',"DRC-2, concentration 2.5",25%
same,% inhibition T4 40',"DRC-2, concentration 20",37%
same,% inhibition T4 40',"DRC-2, concentration 80",32%
same,% inhibition T4 90',"DRC-2, concentration 2.5",23%
same,% inhibition T4 90',"DRC-2, concentration 10",32%
same,% inhibition T4 90',"DRC-2, concentration 80",37%
same,% inhibition T4 180',"DRC-2, concentration 10",25%
same,% inhibition T4 180',"DRC-2, concentration 40",37%
"COc1cccc(C(=O)N2CCc3c(nc4cc(-c5ccccc5)[nH]n4c3=O)C2)c1OC [Molecule 22, COc1c(OC)cccc1C(=O)N1CCc2c(C1)nc1n(c2=O)[nH]c(c1)c1ccccc1]",% inhibition T4 10',"DRC-2, concentration 40",-28%
same,% inhibition T4 10',"DRC-2, concentration 80",-28%
same,% inhibition T4 40',"DRC-2, concentration 2.5",-13%
same,% inhibition T4 40',"DRC-2, concentration 40",-28%
same,% inhibition T4 40',"DRC-2, concentration 80",-27%
same,% inhibition T4 90',"DRC-2, concentration 2.5",-11%
same,% inhibition T4 90',"DRC-2, concentration 10",-29%
same,% inhibition T4 90',"DRC-2, concentration 40",-28%
same,% inhibition T4 180',"DRC-2, concentration 2.5",-11%
same,% inhibition T4 180',"DRC-2, concentration 10",-27%
same,% inhibition T4 180',"DRC-2, concentration 20",-29%
same,% inhibition T4 180',"DRC-2, concentration 40",-29%
"O=C(NNC(=O)c1ccc(Cl)cc1)C(=O)NNC(=O)c1ccc(Cl)cc1 [Molecule 25, O=C(C(=O)NNC(=O)c1ccc(cc1)Cl)NNC(=O)c1ccc(cc1)Cl]",% inhibition T4 10',"DRC-2, concentration 80",-22%
same,% inhibition T4 40',"DRC-2, concentration 5",-13%
same,% inhibition T4 40',"DRC-2, concentration 20",-23%
same,% inhibition T4 40',"DRC-2, concentration 40",-17%
same,% inhibition T4 90',"DRC-2, concentration 5",-13%
same,% inhibition T4 90',"DRC-2, concentration 20",-22%
same,% inhibition T4 180',"DRC-2, concentration 5",-17%
same,% inhibition T4 180',"DRC-2, concentration 20",-23%
same,% inhibition T4 180',"DRC-2, concentration 40",-17%
"COc1ccc(C(=O)N2CCc3c(nc4cc(-c5ccccc5Cl)[nH]n4c3=O)C2)cn1 [Molecule 26, COc1ccc(cn1)C(=O)N1CCc2c(C1)nc1n(c2=O)[nH]c(c1)c1ccccc1Cl]",% inhibition T4 10',"DRC-2, concentration 2.5",-4%
same,% inhibition T4 10',"DRC-2, concentration 10",-17%
same,% inhibition T4 40',"DRC-2, concentration 2.5",-4%
same,% inhibition T4 40',"DRC-2, concentration 40",-23%
same,% inhibition T4 90',"DRC-2, concentration 5",-10%
same,% inhibition T4 90',"DRC-2, concentration 80",-23%
same,% inhibition T4 180',"DRC-2, concentration 10",-10%
same,% inhibition T4 180',"DRC-2, concentration 40",-17%
same,% inhibition T4 180',"DRC-2, concentration 80",-17%
"O=C(c1ccccc1)N1CCc2c(nc3cc(-c4ccccc4)[nH]n3c2=O)C1 [Molecule 30, O=C(N1CCc2c(C1)nc1n(c2=O)[nH]c(c1)c1ccccc1)c1ccccc1]",% inhibition T4 10' 2.5,"DRC-1, concentration 2.5",-1.603%
same,% inhibition T4 10' 5,"DRC-1, concentration 5",-4.492%
same,% inhibition T4 10' 10,"DRC-1, concentration 10",-6.45%
same,% inhibition T4 10' 20,"DRC-1, concentration 20",0.1503%
same,% inhibition T4 10' 40,"DRC-1, concentration 40",0.9641%
same,% inhibition T4 10' 80,"DRC-1, concentration 80",-0.6394%
same,% inhibition T4 70' 2.5,"DRC-1, read at 70', concentration 2.5",-4.009%
same,% inhibition T4 70' 5,"DRC-1, read at 70', concentration 5",-7.504%
same,% inhibition T4 70' 10,"DRC-1, read at 70', concentration 10",-7.7135%
same,% inhibition T4 70' 20,"DRC-1, read at 70', concentration 20",-3.401%
same,% inhibition T4 70' 40,"DRC-1, read at 70', concentration 40",-0.06602%
same,% inhibition T4 70' 80,"DRC-1, read at 70', concentration 80",-5.584%
same,% inhibition T4 130' 2.5,"DRC-1, read at 130', concentration 2.5",-6.3102%
same,% inhibition T4 130' 5,"DRC-1, read at 130', concentration 5",-10.6574%
same,% inhibition T4 130' 10,"DRC-1, read at 130', concentration 10",-9.449%
same,% inhibition T4 130' 20,"DRC-1, read at 130', concentration 20",-6.067%
same,% inhibition T4 130' 40,"DRC-1, read at 130', concentration 40",-1.0022%
same,% inhibition T4 130' 80,"DRC-1, read at 130', concentration 80",-9.233%
same,% inhibition T4 10' 2.5,"DRC-2, concentration 2.5",1.68%
same,% inhibition T4 10' 5,"DRC-2, concentration 5",-13%
same,% inhibition T4 10' 10,"DRC-2, concentration 10",-11%
same,% inhibition T4 10' 20,"DRC-2, concentration 20",-20%
same,% inhibition T4 10' 40,"DRC-2, concentration 40",-17%
same,% inhibition T4 10' 80,"DRC-2, concentration 80",-22%
same,% inhibition T4 40' 2.5,"DRC-2, read at 40', concentration 2.5",1.68%
same,% inhibition T4 40' 5,"DRC-2, read at 40', concentration 5",-13%
same,% inhibition T4 40' 10,"DRC-2, read at 40', concentration 10",-11%
same,% inhibition T4 40' 20,"DRC-2, read at 40', concentration 20",-20%
same,% inhibition T4 40' 40,"DRC-2, read at 40', concentration 40",-17%
same,% inhibition T4 40' 80,"DRC-2, read at 40', concentration 80",-22%
same,% inhibition T4 90' 2.5,"DRC-2, read at 90', concentration 2.5",1%
same,% inhibition T4 90' 5,"DRC-2, read at 90', concentration 5",-13%
same,% inhibition T4 90' 10,"DRC-2, read at 90', concentration 10",-10%
same,% inhibition T4 90' 20,"DRC-2, read at 90', concentration 20",-17%
same,% inhibition T4 90' 40,"DRC-2, read at 90', concentration 40",-15%
same,% inhibition T4 90' 80,"DRC-2, read at 90', concentration 80",-21%
same,% inhibition T4 180' 2.5,"DRC-2, read at 180', concentration 2.5",-2.79%
same,% inhibition T4 180' 5,"DRC-2, read at 180', concentration 5",-16%
same,% inhibition T4 180' 10,"DRC-2, read at 180', concentration 10",-13%
same,% inhibition T4 180' 20,"DRC-2, read at 180', concentration 20",-19%
same,% inhibition T4 180' 40,"DRC-2, read at 180', concentration 40",-15%
same,% inhibition T4 180' 80,"DRC-2, read at 180', concentration 80",-21%
"O=C(O)CCS(=O)(=O)c1ccc(-c2ccc(S(=O)(=O)CCC(=O)O)cc2)cc1 [Molecule 32, OC(=O)CCS(=O)(=O)c1ccc(cc1)c1ccc(cc1)S(=O)(=O)CCC(=O)O]",% inhibition T4 10',"DRC-2, concentration 2.5",-14%
same,% inhibition T4 40',"DRC-2, concentration 20",-22%
same,% inhibition T4 40',"DRC-2, concentration 40",-14%
same,% inhibition T4 90',"DRC-2, concentration 5",-25%
same,% inhibition T4 90',"DRC-2, concentration 20",-25%
same,% inhibition T4 90',"DRC-2, concentration 40",-17%
same,% inhibition T4 180',"DRC-2, concentration 2.5",-25%
same,% inhibition T4 180',"DRC-2, concentration 40",-22%
same,% inhibition T4 180',"DRC-2, concentration 80",-17%
